Measured values published in paper PMC8237267 (Journal of Medicinal Chemistry, 2021).

Legend:
HDAC3 = molecular target: T1, HDAC3 (Homo sapiens, UniProt O15379); assay: HDAC EMSA activity assay (Nanosyn); assay type: biochemical; conditions: read-out: IC50 HDAC3
T1 construct: The full-length human HDACs were recombinantly expressed and purified from SF9 insect cells; host or cells: SF9 insect cells

HDAC8 = molecular target: T2, HDAC8 (Homo sapiens, UniProt Q9BY41); assay: HDAC EMSA activity assay (Nanosyn); assay type: biochemical; conditions: EMSA (Nanosyn); read-out: IC50 HDAC8
T2 construct: The full-length human HDACs were recombinantly expressed and purified from SF9 insect cells; host or cells: SF9 insect cells
T2 sequence (Q9BY41 1-377): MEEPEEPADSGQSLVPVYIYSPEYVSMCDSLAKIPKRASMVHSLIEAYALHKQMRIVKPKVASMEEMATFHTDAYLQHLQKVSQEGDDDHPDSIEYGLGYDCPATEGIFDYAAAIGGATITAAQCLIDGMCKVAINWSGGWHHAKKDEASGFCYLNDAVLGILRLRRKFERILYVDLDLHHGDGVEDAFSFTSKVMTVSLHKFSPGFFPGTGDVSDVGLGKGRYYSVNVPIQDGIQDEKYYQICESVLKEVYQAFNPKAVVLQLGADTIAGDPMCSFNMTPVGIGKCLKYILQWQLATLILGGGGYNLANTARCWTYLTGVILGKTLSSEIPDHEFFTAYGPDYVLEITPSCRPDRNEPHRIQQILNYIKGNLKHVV

HDAC6 [1] = molecular target: T3, HDAC6 (Homo sapiens, UniProt Q9UBN7); assay: Determination of Ki (Kon kinetics); assay type: biochemical; conditions: time-dependent inhibition Kon experiment
T3 sequence (Q9UBN7 1-1215): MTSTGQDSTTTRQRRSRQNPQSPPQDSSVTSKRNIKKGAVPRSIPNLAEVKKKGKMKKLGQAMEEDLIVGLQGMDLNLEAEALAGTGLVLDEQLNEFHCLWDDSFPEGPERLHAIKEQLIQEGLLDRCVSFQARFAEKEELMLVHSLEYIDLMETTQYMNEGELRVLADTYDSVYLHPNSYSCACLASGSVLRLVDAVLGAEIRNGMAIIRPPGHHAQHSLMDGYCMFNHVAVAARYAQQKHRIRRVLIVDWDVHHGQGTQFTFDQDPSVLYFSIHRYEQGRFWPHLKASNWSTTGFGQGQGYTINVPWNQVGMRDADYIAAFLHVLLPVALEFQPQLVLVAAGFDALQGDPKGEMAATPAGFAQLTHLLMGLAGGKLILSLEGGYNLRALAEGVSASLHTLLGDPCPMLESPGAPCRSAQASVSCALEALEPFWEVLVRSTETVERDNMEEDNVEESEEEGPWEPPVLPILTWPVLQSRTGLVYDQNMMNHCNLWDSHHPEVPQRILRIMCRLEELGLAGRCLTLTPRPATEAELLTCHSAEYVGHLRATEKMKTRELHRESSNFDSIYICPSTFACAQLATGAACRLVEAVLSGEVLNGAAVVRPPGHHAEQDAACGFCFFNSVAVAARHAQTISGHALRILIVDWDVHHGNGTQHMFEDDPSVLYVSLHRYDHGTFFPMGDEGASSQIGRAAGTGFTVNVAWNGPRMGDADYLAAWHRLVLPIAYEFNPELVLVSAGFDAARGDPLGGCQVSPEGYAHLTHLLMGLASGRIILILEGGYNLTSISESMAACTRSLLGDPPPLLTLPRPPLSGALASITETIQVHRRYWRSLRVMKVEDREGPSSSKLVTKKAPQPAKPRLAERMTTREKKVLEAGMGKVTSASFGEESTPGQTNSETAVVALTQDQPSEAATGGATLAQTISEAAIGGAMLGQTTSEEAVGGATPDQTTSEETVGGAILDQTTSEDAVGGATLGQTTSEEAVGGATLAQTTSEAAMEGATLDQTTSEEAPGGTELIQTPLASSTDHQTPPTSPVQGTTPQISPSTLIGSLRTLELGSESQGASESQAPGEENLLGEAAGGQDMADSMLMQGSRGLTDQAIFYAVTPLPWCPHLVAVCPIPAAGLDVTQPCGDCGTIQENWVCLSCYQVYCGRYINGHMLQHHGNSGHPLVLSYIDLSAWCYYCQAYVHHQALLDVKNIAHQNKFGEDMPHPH
Procedure: Serial dilutions of compound were mixed with 3 nM HDAC6 enzyme and substrate peptide in assay buffer. Progress curves were acquired without preincubation for ∼5 h on a Labchip3000 instrument. Progress curves in the presence of compound were fit with the following equation: ((A + (Vs × x)) + (((Vo – Vs) × (1 – exp((−1 × Kobs) × t)))/Kobs)). To determine observed rate of inhibition, Vo was locked to that in control (Vi, DMSO only). Fractional steady state velocity (Vs/Vi) and Kobs values were plotted against [compound] to determine Ki and residence time.

HDAC6 [2] = molecular target: T3, HDAC6; assay: Time-dependent IC50 assay with preincubation (0-6 h); assay type: biochemical; conditions: 6 h time-dependent assay
Procedure: The binding kinetics profile of KT-531 was also investigated by determining the association (kon)/dissociation (koff) rates as well as residence time parameters. The in vitro residence time (1/kobs) for the KT-531–HDAC6 complex was determined to be 23.18 min, as compared to 10.72 min for 1.

acetylated α-tubulin = assay: Western blot in MV4-11 cells; assay type: cell-based; conditions: MV4-11, 6 h, higher inhibitor concentrations
Procedure: (§1) Briefly, MV4-11 cells were incubated with inhibitors prior to cell lysis with radioimmunoprecipitation assay (RIPA) buffer (20 mM Tris pH 7.4, 150 mM NaCl, 0.5% deoxycholate, 1% Triton X-100, and 0.1% sodium dodecyl sulfate (SDS)). Total protein content was determined through a BCA assay (ThermoFisher), resolved via a 4–20% polyacrylamide SDS gel, and transferred to a nitrocellulose membrane (Bio-Rad). The membranes were blocked with a 5% solution (skimmed milk powder in PBS-T). This was followed by incubation at 4 °C (overnight) with the following antibodies: acetylated α-tubulin mouse monoclonal (MABT868, EMD Millipore), acetylated histone H3 (Ac-Lys18, 07–354, Sigma), PARP-1 (ab227244, Abcam), apoptosis Western blot cocktail (136812, Abcam), cleaved PARP-1 (ab32561, Abcam), and HSC70 (sc-7298, Santa Cruz). Following overnight incubation, horseradish peroxidase (HRP)-conjugated goat anti-mouse IgG secondary antibody (7076, Cell Signaling) or HRP-linked anti-rabbit IgG secondary antibody (7074, Cell Signaling) was applied to the membrane in a 1:5000 dilution. The bands were visualized using clarity Western ECL substrate luminal/enhancer solution and peroxide solution. Western blotting analysis was carried out using Image lab software (Bio-Rad).[47],[50],[70]

[3] = system: cleavage of PARP-1 and Caspase-3; assay: Western blot of apoptosis markers in MV4-11 cells; assay type: cell-based; conditions: MV4-11, 6 h, 0.5 μM
Procedure: as §1

HDAC6 [4] = molecular target: T3, HDAC6; assay: HDAC EMSA activity assay (Nanosyn); assay type: biochemical; design: The full-length human HDACs were recombinantly expressed and purified from SF9 insect cells; host or cells: SF9 insect cells; conditions: EMSA (Nanosyn); read-out: IC50 HDAC6

T1 sequence (O15379 whole entry): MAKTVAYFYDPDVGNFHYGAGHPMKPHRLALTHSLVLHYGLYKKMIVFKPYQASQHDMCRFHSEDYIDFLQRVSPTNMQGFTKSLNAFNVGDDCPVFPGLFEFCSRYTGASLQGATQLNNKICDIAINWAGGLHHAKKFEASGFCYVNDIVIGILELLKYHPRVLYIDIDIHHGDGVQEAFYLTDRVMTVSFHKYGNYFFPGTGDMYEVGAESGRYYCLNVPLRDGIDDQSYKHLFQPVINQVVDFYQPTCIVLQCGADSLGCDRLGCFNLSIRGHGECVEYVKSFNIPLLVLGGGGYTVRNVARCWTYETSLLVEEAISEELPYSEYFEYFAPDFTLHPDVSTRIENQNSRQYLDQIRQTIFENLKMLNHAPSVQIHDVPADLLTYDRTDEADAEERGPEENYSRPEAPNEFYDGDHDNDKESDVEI
T1 sequence (Q9Y618 395-489 partner limits assumed): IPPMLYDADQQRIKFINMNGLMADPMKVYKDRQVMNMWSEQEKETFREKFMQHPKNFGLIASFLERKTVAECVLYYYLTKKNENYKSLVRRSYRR

Molecule O=C(NO)c1ccc(CN(C2CC2)S(=O)(=O)c2cc(F)c(F)c(F)c2F)cc1 [Compound 14, 4-(((N-Cyclopropyl-2,3,4,5-tetrafluorophenyl)sulfonamido)methyl)-N-hydroxybenzamide] has an IC50 (HDAC3) greater than 1000 nM, an IC50 (HDAC8) of 334 nM and a Ki (HDAC6 [1]) of 17.3 nM. For the same molecule, the “reversibility of binding (IC50 over preincubation time)” value (HDAC6 [2]) was “unchanged IC50 values”, the “acetylated α-tubulin levels (Western blot)” value (acetylated α-tubulin) was “comparable between citarinostat and KT-531” and the “cleavage of PARP-1 and Caspase-3” value [3] was “Cleavage of PARP-1 and Caspase-3”. It also gave an IC50 (HDAC6 [4]) of 8.5 nM.
